Measured values published in US20250222062A1, “PEPTIDE INHIBITORS TARGETING THE TBL1-BETA-CATENIN COMPLEX” (THE TRANSLATIONAL GENOMICS RESEARCH INSTITUTE, priority 2022, published 2025).
Values belong to the sequence of their own block, whether it stands above or below them. Where no end group is shown, it is not given here.

Assays:
TBL1/β-catenin complex = biological target: T1, TBL1/β-catenin complex (Homo sapiens, UniProt O60907); assay: Sandwich ELISA peptide library screening in colon cancer cell lysates; format: binding; conditions: screening of individual peptides, FIG. 7
T1 construct: TBL1/β-catenin complex from lysates of a colon cancer cell with active Wnt signaling was captured; endogenous in cells; host or cells: HCT15 and SW480 colon cancer cell lysates, cells pre-treated with 20 mM LiCl
T1 sequence (O60907 1-577): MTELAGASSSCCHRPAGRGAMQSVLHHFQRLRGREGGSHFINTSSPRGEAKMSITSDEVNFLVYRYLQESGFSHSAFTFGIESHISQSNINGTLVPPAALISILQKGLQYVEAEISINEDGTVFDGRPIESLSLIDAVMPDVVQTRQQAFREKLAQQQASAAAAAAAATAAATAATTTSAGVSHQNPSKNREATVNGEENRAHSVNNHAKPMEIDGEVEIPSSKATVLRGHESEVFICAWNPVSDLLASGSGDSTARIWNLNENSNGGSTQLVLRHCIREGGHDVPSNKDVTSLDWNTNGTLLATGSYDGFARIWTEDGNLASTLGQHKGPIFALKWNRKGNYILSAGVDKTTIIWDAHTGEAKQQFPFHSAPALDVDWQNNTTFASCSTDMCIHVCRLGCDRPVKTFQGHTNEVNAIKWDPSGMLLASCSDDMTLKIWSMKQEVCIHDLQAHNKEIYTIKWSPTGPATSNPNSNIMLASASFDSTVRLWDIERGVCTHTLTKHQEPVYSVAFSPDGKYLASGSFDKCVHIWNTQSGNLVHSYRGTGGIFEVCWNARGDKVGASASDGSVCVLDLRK
Description: To identify the peptide or peptides able to disrupt the interaction between TBL1 and (3-catenin, the sandwich ELISA approach was used (see FIG. 4). In this assay TBL1/β-catenin complex from lysates of a colon cancer cell with active Wnt signaling was captured in a Protein G ELISA 96-well plate coated with antibody that recognizes TBL1. To ensure activation of Wnt signaling, the cells were pre-treated with 20 mM LiCl for 12 h a 37° C. The bound complex was then exposed to peptides from the library either as single peptides or in a combination of 2 or 3 peptides to ensure coverage of the potential binding site between TBL1 and β-catenin. After washing away unbound proteins, the plates were incubated with β-catenin antibodies labeled with ALEXA FLUOR® 488 dye, and the level of β-catenin associated to TBL1 was quantified by a plate reader that detects the ALEXA FLUOR® 488 fluorescence probe. As a form of TBL1/β-catenin complex, we used colon cancer cell lines HCT15 and SW480. All the experiments were conducted in triplicate to ensure statistical significance. To reduce variability the assays were performed by using the EPMOTION® liquid handler. We designed a program that controls the peptide seeding into the ELISA plate wells: 1, 2 or 3 peptides per well, with overlap of one peptide in each well.
All wells in the screening were loaded with 1 mg/ml of lysate and incubated at 37° C. for 1 hour. After a wash, peptide combinations were added at a concentration of […] for each peptide and incubated at 37° C. for 2 hours followed by β-catenin detection as described. […] The SW480 lysate standard curve was generated by varying the concentration of lysate without any peptides present.
Additional screening was performed with the peptide library using the assay described in Example 2 with the colon cancer cell lines HCT15 and SW480.
Combinations of three peptides were subsequently assayed at varying concentrations to show a dose response in the disruption of the interaction between TBL1 and β-catenin.
To identify the peptide or peptides able to disrupt the interaction between TBL1 and (3-catenin, we tested the Sandwich ELISA approach. In this assay TBL1/β-catenin complex from lysates of colon cancer cell with active Wnt signaling, is captured in Protein G ELISA 96 well plate coated with antibody that recognizes TBL1. To ensure activation of Wnt signaling, the cells are pre-treated with 20 mM LiCl for 12 h a 37° C. The bound complex is then exposed to peptides from the library either as single peptide or in a combination of 2 or 3 peptides to ensure coverage of the potential binding site between TBL1 and β-catenin. After washing away unbound proteins, the plates are incubated with β-catenin antibodies labeled with Alexa Fluor 488 dye, and the level of β-catenin associated to TBL1 is quantified by a plate reader that detects the 488 fluorescence probe. As a font of TBL1/β-catenin complex we used colon cancer cell lines HCT15 and SW480. All the experiments are conducted in triplicated to ensure statistical significance, and to reduce variability we perform the assays by using the EpiMotion liquid handler. We designed a program that controls the peptide seeding into the ELISA plate wells: 1, 2 or 3 peptides per well, with overlap of one peptides in each well.

[1] = tested on: β-catenin-mediated transcriptional activation (TCF/LEF); assay: TOPFlash TCF/LEF reporter assay, reporter cells transfected with peptides; format: cell-based
Description: FIGS. 15A and 15B depict the results of a TOPFlash TCF/LEF reporter assay monitoring Wnt/β-catenin signaling pathway activity in cells expressing BC2059 (i.e., positive control) and Peptides 1-5.
A TOPFlash TCF/LEF reporter assay was performed with Peptides 1-5 as described in Veeman M T, et al. (2003) Curr Biol. 13(8):680-5. This is a luciferase reporter assay of (3-catenin-mediated transcriptional activation. Tegatrabetan (BC2059) was used as a positive control in the TOPFlash TCF/LEF reporter assay. Briefly, TCF/LEF reporter cells were transfected with the nucleofection kit. After 48 hours, the ONE-STEP™ luciferase assay was performed.

[2] = biological target: T2, TBL1 complex (β-catenin displacement) (Homo sapiens, UniProt O60907); assay: Homologous competitive ELISA with increasing logarithmic peptide concentrations; format: binding; conditions: increasing logarithmic concentrations of each peptide, FIG. 11
T2 sequence (O60907 1-577): T1 sequence (O60907 1-577)

β-catenin bound to TBL1 = biological target: T3, β-catenin bound to TBL1 (Homo sapiens, UniProt O60907); assay: Pull-down assay with TBL1 in SW480 cells transfected with peptides, Western blot; format: cell-based; conditions: FIG. 14
T3 construct: endogenous in cells; host or cells: SW480 colorectal cancer cells (only the peptides and the GFP control were transfected)
T3 sequence (O60907 1-577): T1 sequence (O60907 1-577)
Description: FIG. 13 depicts a pull-down assay with TBL1 in the SW480 colorectal cancer (CRC) cell line transfected with the selected peptides.
Tegatrabetan (BC2059) is an antagonist of β-Catenin and was used as a positive control in the pull-down experiments. […] Green fluorescent protein (GFP) was also transfected into the SW480 cells as a negative control.

[3] = tested on: transcription activity downstream TCF/LEF; assay: TOPFlash assay in HEK293 TCF/LEF luciferase cells stimulated with LiCl and Wnt3a, peptide treatment; format: cell-based; conditions: peptide at 5 μM for 6 hours, FIG. 17
Description: FIG. 17 presents a TOPFlash assay to determine transcription activity downstream TCF/LEF: HEK293 cells containing a luciferase downstream TCF/LEF were LiCl was administered 16 hours prior to treatment to stimulate the Wnt pathway. Then the cells were treated with recombinant Wnt3a to stimulate transcription and peptide at 5 μM or BC-2059 at 0.5 μM for 6 hours before luciferase expression was quantified with the One-Step Luciferase assay system.
FIG. 22 presents TOPFlash assay to determine transcription activity downstream TCF/LEF: HEK293 cells containing a luciferase downstream TCF/LEF were with LiCl 16 hours prior to treatment to stimulate the Wnt pathway. Then they were treated with recombinant Wnt3a to stimulate transcription and peptide 16 (short) and 2 (long) at 5 μM or BC-2059 at 0.5 μM for 6 hours before luciferase expression was quantified with the One-Step Luciferase assay system.
FIG. 23 presents TOPFlash assay results to determine transcription activity downstream TCF/LEF dependency to peptides: HEK293 cells containing a luciferase downstream TCF/LEF were with LiCl 16 hours prior to treatment to stimulate the Wnt pathway. Then they were treated with recombinant Wnt3a to stimulate transcription and peptide 16 (short) and 2 (long) at different concentrations (300 μM-0.01 μM) for 6 hours before luciferase expression was quantified with the One-Step Luciferase assay system. […]

[4] = tested on: transcription downstream TCF/LEF; assay: Washout TOPFlash assay; format: cell-based; conditions: FIG. 18
Description: FIG. 18 presents wash out TOPFlash at 8, 12,18, and 24 hour time points: to investigate the effects of peptide 3 over time with a washout TOPFlash assay. To do this we followed the same procedure previously stated but performed washouts at 8, 12, 18, and 24 hour time points. This experiment was completed in duplicate.
FIG. 18 presents wash out TOPFlash at 8, 12,18, and 24 hour time points: to investigate the effects of peptide 3 over time with a washout TOPFlash assay. To do this we followed the same procedure previously stated but performed washouts at 8, 12, 18, and 24 hour time points.
This experiment was completed in duplicate.

HCT15 (colon cancer) = assay: Cell viability by CellTiter Glo; format: cell-based; conditions: 300 μM-0.01 μM for 72 hours, FIG. 24
HCT116 (colon cancer) = assay: Cell viability by CellTiter Glo; format: cell-based; conditions: 300 μM-0.01 μM for 72 hours, FIG. 24
SW480 (colon cancer) = assay: Cell viability by CellTiter Glo; format: cell-based; conditions: 300 μM-0.01 μM for 72 hours, FIG. 24
H358 (lung cancer) = assay: Cell viability by CellTiter Glo; format: cell-based; conditions: 300 μM-0.01 μM for 72 hours, FIG. 24

Sequence: HQLSKKEASRHAIMRSPQMVSAIVRTMONTNDVETARCTAGTLH (HQLSKKEASRHAIMRSPQMVSAIVRTMQNTNDVETARCTAGTLH) [Peptide 1, longer peptide, from b112 on]
β-catenin-mediated transcriptional activation (luciferase) ([1]; initial evaluation of all five peptides, 48 hours after transfection, FIG. 15A): significant decrease | β-catenin-mediated transcriptional activation (luciferase) ([1]; second experiment evaluating only Peptide 1, FIG. 15B): confirmed the earlier result

Sequence: LKVLSVCSSNKPAIVEAGGM [Pep18]
disrupting the interaction between TBL1 and β-catenin (TBL1/β-catenin complex): showed efficacy

Sequence: RTMQNTNDVETARCTAGTLH [Pep6]
cytotoxic effect (cell viability) (HCT15 (colon cancer)): cytotoxic effect | cytotoxic effect (cell viability) (HCT116 (colon cancer)): cytotoxic effect | cytotoxic effect (cell viability) (SW480 (colon cancer)): cytotoxic effect | cytotoxic effect (cell viability) (H358 (lung cancer)): cytotoxic effect

Sequence: TYEKLLWTTSRVLKVLSVCS [Pep17]
disrupting the interaction between TBL1 and β-catenin (TBL1/β-catenin complex): showed efficacy

Sequence: VDSVLFYAITTLHNLLLHQEGAKMAVRLAGGLQKMVALLNKTNV [Peptide 2]
cytotoxic effect (cell viability) (HCT15 (colon cancer)): cytotoxic effect | cytotoxic effect (cell viability) (HCT116 (colon cancer)): cytotoxic effect | cytotoxic effect (cell viability) (SW480 (colon cancer)): cytotoxic effect | cytotoxic effect (cell viability) (H358 (lung cancer)): cytotoxic effect

More lines, main results first:

disrupting the interaction between TBL1 and β-catenin (TBL1/β-catenin complex): showed efficacy
Sequence: AIVEAGGMQALGLHLTDPSQ [Pep19]

disrupting the interaction between TBL1 and β-catenin (TBL1/β-catenin complex): showed efficacy | amount of β-catenin bound to TBL1 (β-catenin bound to TBL1): most pronounced effects
Sequence: LKVLSVCSSNKPAIVEAGGMQALGLHLTDPSQRLVQNCLWTLRN [Peptide 4]
displacement of β-catenin from the TBL1 complex [2]: able to displace β-catenin from the TBL1 complex in a dose dependent manner

luciferase produced after washout ([4]; peptide washed out after 8 and 12 hours, compared to the non washout control): increase in luciferase produced
Sequence: NQESKLIILASGGPQALVNIMRTYTYEKLLWTTSRVLKVLSVCS [Peptide 3, longer peptide; in b127-b129 apparently used as CPP peptide]
levels of luciferase after treatment [3]: decreased levels of luciferase | blocking transcription downstream TCF/LEF ([4]; conclusion of washout TOPFlash): specific and effective

disrupting the interaction between TBL1 and β-catenin (TBL1/β-catenin complex): showed efficacy | amount of β-catenin bound to TBL1 (β-catenin bound to TBL1): most pronounced effects
Sequence: VVTCAAGILSNLTCNNYKNKMMVCQVGGIEALVRTVLRAGDRED [Peptide 5, longer peptide; in b127 apparently used as CPP peptide]
displacement of β-catenin from the TBL1 complex [2]: able to displace β-catenin from the TBL1 complex in a dose dependent manner | levels of luciferase after treatment [3]: decreased levels of luciferase
